Results: patent US20240239735A1, “ACID ADDITION SALT OF ROCK INHIBITOR, AND CRYSTAL FORM, COMPOSITION AND PHARMACEUTICAL USE THEREOF” (WUHAN LL SCIENCE AND TECHNOLOGY DEVELOPMENT CO., LTD., priority 2021, published 2024)
≈ marks a conversion by molar mass, not a printed value. Where two headings read alike, the source gives them in different places. Each block holds one molecule with its values, some of them ahead of it.

How the values were obtained:
[1] = Solid state stability test (HPLC purity, XRPD); type: physicochemical; settings: for Initial purity (Area %): 0 weeks; for Initial purity (Area %) / Purity (Area %): 265 nm; for Physical and chemical stability: 60° C./sealed and 40° C./75% RH open
Description: (§1) The instrument used for HIPLC analysis was Agilent TIPLC 1260 series.
The samples after being stored 0 days, 1 week, and 2 weeks were taken and each dissolved in a diluent to prepare about 1.0 mg/mL solution, which was tested for chemical stability by HPLC. The solid sample after being stored for 1 week or 2 weeks was tested for physical stability by XRPD.

[2] = Pharmacokinetic study in SD rats, intragastric administration; type: in vivo; settings: for Cmax: compound A in plasma; for Exposure of compound A relative to administration of the free base: same dose
Description: In the experiment, 12 SD rats (purchased from Beijing Vital River Laboratory Animal Technology Co., Ltd.) weighing 180-280 g, half male and female, were used. The animals were randomly divided into four groups of 3 animals each, with female rats in the first and third groups and male rats in the second and fourth groups.
Blood was collected from the orbital venous plexus of rats at various time points (0.167 h, 0.5 h, 1 h, 2 h, 3 h, 4 h, 6 h, 9 h, 12 h, and 24 h) after administration. The concentration of compound A in the plasma was determined.
Data will be analyzed by a non-compartmental model using WinNonlin (version 5.2.1 Pharsight, Mountain View, CA) to obtain PK parameters (parameters selected for different routes of administration, such as C0, Cmax, Tmax, AUC0-last, AUCinf, T1/2, CL, and Vz).

[3] = Hygroscopicity test by dynamic vapor sorption (DVS); type: physicochemical; settings: for DVS weight gain (Wt. gain %): 25° C.; for Hygroscopicity: DVS, assessment in words
Description: The sample was subjected to water adsorption/desorption tests using a Vsorp (ProUmid GmbH & Co. KG, Germany) water adsorption analyzer. The sample was placed in a tared sample tray, and the change in the sample mass with humidity (0-90% RH) at 25° C. was recorded.

[4] = Solubility test in biologically relevant media at 37° C. (HPLC, pH, XRPD of filter cake); type: physicochemical
Description: as §1
The suspension was incubated by shaking on a shaker at 100 rpm at 37° C. 1 mL of the dispersion was taken at 0.5 h, 2 h, and 24 h, and filtered. The filtrate was tested for the solubility by HPLC and for the pH value by a pH meter. The filter cake was characterized for the crystal form by XRPD.

[5] = Hygroscopicity test by dynamic vapor sorption (DVS); type: physicochemical; settings: from 0.0% RH to 95% RH
[6] = female SD rats, 20 mg/kg in 5% TPGS, 20 mg/kg
[7] = female, SD, rat, plasma, po, 20 mg/kg, female SD rats, 20 mg/kg in 5% TPGS
[8] = male SD rats, 20 mg/kg in 5% TPGS, 20 mg/kg
[9] = SGF medium, 0.5 h, rounded values
[10] = male, SD, rat, plasma, po, 20 mg/kg, male SD rats, 20 mg/kg in 5% TPGS

Initial purity (Area %) ([1]; HPLC method of 7-day test): 98.62 Area %
Initial purity (Area %) ([1]; HPLC method of 14-day test): 99.83 Area %
Purity (Area %) ([1]; 1 week, 40° C./75% RH open): 98.62 Area %
Purity (Area %) ([1]; 1 week, 60° C./sealed): 98.64 Area %
Purity (Area %) ([1]; 2 weeks, 40° C./75% RH open): 99.83 Area %
Purity (Area %) ([1]; 2 weeks, 60° C./sealed): 99.83 Area %
Physical and chemical stability ([1]; one week): physically and chemically stable
Physical and chemical stability ([1]; two weeks): physically and chemically stable
AUClast [2, 6]: 14778 ± 3318 ng·h/mL
AUC(0-inf) [2, 7]: 18160 ± 150 ng·h/mL
half-life [2, 7]: 173 ± 27.6 min
Cmax ([2]; female, SD, rat, plasma, po, 20 mg/kg, female SD rats, 20 mg/kg in 5% TPGS, read-out: Cmax): 3620 ± 321 ng/mL
Tmax ([2]; female, SD, rat, plasma, po, 20 mg/kg, female SD rats, 20 mg/kg in 5% TPGS, read-out: Tmax): 40.2 ± 10.2 min
AUCinf [2, 8]: 19790 ± 2233 ng·h/mL
AUClast [2, 8]: 19604 ± 2132 ng·h/mL
T1/2 [2, 8]: 3.33 ± 0.40 h
Tmax [2, 8]: 60 ± 0 min
Cmax [2, 8]: 3297 ± 676 ng/mL
XRPD pattern / crystal form before and after the DVS test [3]: crystal form remained unchanged
DVS weight gain (Wt. gain %) ([3]; 0.0% RH to 80% RH): 1.3%
DVS weight gain (Wt. gain %) ([3]; 0.0% RH to 90% RH): 1.5%
Hygroscopicity [3]: slightly hygroscopic
Solubility ([4]; FaSSIF, 37° C., 0.5 h): 8.24 µg/mL (≈ 21.6 µM)
Solubility ([4]; FaSSIF, 37° C., 2 h): 5.14 µg/mL (≈ 13.5 µM)
Solubility ([4]; FaSSIF, 37° C., 24 h): 6.44 µg/mL (≈ 16.9 µM)
XRPD (crystal form of filter cake) ([4]; FaSSIF, 37° C., 24 h): Remains unchanged
XRPD (crystal form of filter cake) ([4]; FaSSIF, 37° C., 24 h, listed as free base crystal form II): remained unchanged
pH of filtrate ([4]; FaSSIF, 24 h (0 h: 6.50)): 6.49
Solubility ([4]; FeSSIF, 37° C., 0.5 h): 33.38 µg/mL (≈ 87.5 µM)
Solubility ([4]; FeSSIF, 37° C., 2 h): 42.87 µg/mL (≈ 112 µM)
Solubility ([4]; FeSSIF, 37° C., 24 h): 48.68 µg/mL (≈ 128 µM)
XRPD (crystal form of filter cake) ([4]; FeSSIF, 37° C., 24 h): Remains unchanged
XRPD (crystal form of filter cake) ([4]; FeSSIF, 37° C., 24 h, listed as free base crystal form II): remained unchanged
pH of filtrate ([4]; FeSSIF, 24 h (0 h: 5.00)): 4.99
Solubility [4, 9]: 1000 µg/mL (≈ 2620 µM)
Solubility ([4]; SGF, 37° C., 0.5 h): 1010 µg/mL (≈ 2650 µM)
Solubility ([4]; SGF, 37° C., 2 h): 1027 µg/mL (≈ 2690 µM)
Solubility ([4]; SGF, 37° C., 24 h): 1167 µg/mL (≈ 3060 µM)
XRPD (crystal form of filter cake) ([4]; SGF, 37° C., 24 h): Remains unchanged
XRPD (crystal form of filter cake) ([4]; SGF, 37° C., 24 h, listed as free base crystal form II): remained unchanged
pH of filtrate ([4]; SGF, 24 h (0 h: 1.20)): 1.29
Compound: COc1cccc(CNC(=O)N2CCc3cc(-c4c[nH]nc4N)c(F)cc32)c1 [Free base crystal form II, 5-(3-amino-1H-pyrazol-4-yl)-6-fluoro-N-(3-methoxybenzyl)indoline-1-carboxamide]

Initial purity (Area %) ([1]; HPLC method of 7-day test): 99.30 Area %
Purity (Area %) ([1]; 1 week, 40° C./75% RH open): 99.20 Area %
Purity (Area %) ([1]; 1 week, 60° C./sealed): 99.20 Area %
XRPD pattern / crystal form before and after the DVS test [3]: crystal form remained unchanged
Hygroscopicity [3]: non-hygroscopic
Solubility ([4]; FaSSIF, 37° C., 24 h): 0.28 µg/mL
pH of filtrate ([4]; FaSSIF, 24 h (0 h: 6.50)): 6.2
Solubility ([4]; FeSSIF, 37° C., 24 h): 132.92 µg/mL
pH of filtrate ([4]; FeSSIF, 24 h (0 h: 5.00)): 4.9
Solubility ([4]; SGF, 37° C., 24 h): 1425.24 µg/mL
XRPD (crystal form of filter cake) ([4]; SGF, 37° C., 24 h): Remains unchanged
pH of filtrate ([4]; SGF, 24 h (0 h: 1.20)): 1.2
DVS water absorbed [5]: about 0.2%
Compound: COc1cccc(CNC(=O)N2CCc3cc(-c4c[nH]nc4N)c(F)cc32)c1 [Fumarate crystal form II]

Initial purity (Area %) ([1]; HPLC method of 7-day test): 99.85 Area %
Initial purity (Area %) ([1]; HPLC method of 14-day test): 99.73 Area %
Purity (Area %) ([1]; 1 week, 40° C./75% RH open): 99.85 Area %
Purity (Area %) ([1]; 1 week, 60° C./sealed): 99.86 Area %
Purity (Area %) ([1]; 2 weeks, 40° C./75% RH open): 99.74 Area %
Purity (Area %) ([1]; 2 weeks, 60° C./sealed): 99.75 Area %
Physical and chemical stability ([1]; one week): physically and chemically stable
Physical and chemical stability ([1]; two weeks): physically and chemically stable
AUCinf [2, 6]: 33018 ± 1303 ng·h/mL
AUClast [2, 6]: 32884 ± 1318 ng·h/mL
T1/2 [2, 6]: 3.01 ± 0.22 h
Tmax [2, 6]: 49.8 ± 10.2 min
Cmax [2, 6]: 6357 ± 342 ng/mL
Exposure of compound A relative to administration of the free base ([2]; female rats): 2.23 times
Exposure of compound A relative to administration of the free base ([2]; male rats): 1.22 times
AUC(0-inf) [2, 10]: 24100 ± 2900 ng·h/mL
AUC(0-t) [2, 10]: 23900 ± 2930 ng·h/mL
half-life [2, 10]: 206 ± 17.4 min
Cmax ([2]; male, SD, rat, plasma, po, 20 mg/kg, male SD rats, 20 mg/kg in 5% TPGS, read-out: Cmax): 3050 ± 198 ng/mL
Tmax ([2]; male, SD, rat, plasma, po, 20 mg/kg, male SD rats, 20 mg/kg in 5% TPGS, read-out: Tmax): 40.2 ± 10.2 min
XRPD pattern / crystal form before and after the DVS test [3]: crystal form remained unchanged
DVS weight gain (Wt. gain %) ([3]; 0.0% RH to 80% RH): <0.2%
DVS weight gain (Wt. gain %) ([3]; 0.0% RH to 80% RH, listed as fumarate crystal form I): < 0.2%
DVS weight gain (Wt. gain %) ([3]; 0.0% RH to 90% RH): <0.2%
DVS weight gain (Wt. gain %) ([3]; 0.0% RH to 90% RH, listed as fumarate crystal form I): < 0.2%
Hygroscopicity [3]: non-hygroscopic
Solubility relative to free base crystal form II ([4]; 0.5 h, all three biologically relevant media): about twice
Solubility ([4]; FaSSIF, 37° C., 0.5 h): 12.19 µg/mL
Solubility ([4]; FaSSIF, 37° C., 2 h): 3.57 µg/mL
Solubility ([4]; FaSSIF, 37° C., 24 h): 4.25 µg/mL
pH of filtrate ([4]; FaSSIF, 24 h (0 h: 6.50)): 5.96
Solubility ([4]; FeSSIF, 37° C., 0.5 h): 109.2 µg/mL
Solubility ([4]; FeSSIF, 37° C., 2 h): 75.30 µg/mL
Solubility ([4]; FeSSIF, 37° C., 24 h): 61.39 µg/mL
pH of filtrate ([4]; FeSSIF, 24 h (0 h: 5.00)): 4.90
Solubility [4, 9]: 1900 µg/mL
Solubility ([4]; SGF, 37° C., 0.5 h): 1899 µg/mL
Solubility ([4]; SGF, 37° C., 2 h): 2135 µg/mL
Solubility ([4]; SGF, 37° C., 24 h): 2146 µg/mL
XRPD (crystal form of filter cake) ([4]; SGF, 37° C., 24 h): Trace solid
pH of filtrate ([4]; SGF, 24 h (0 h: 1.20)): 1.29
Compound: COc1cccc(CNC(=O)N2CCc3cc(-c4c[nH]nc4N)c(F)cc32)c1 [Fumarate crystal form I]
Crystal form during the solubility test ([4]; 0.5 h, FaSSIF and FeSSIF media): dissociated into the free base crystal form II

Initial purity (Area %) ([1]; HPLC method of 7-day test): 96.97 Area %
Purity (Area %) ([1]; 1 week, 40° C./75% RH open): 96.97 Area %
Purity (Area %) ([1]; 1 week, 60° C./sealed): 96.13 Area %
Physical and chemical stability ([1]; one week): degraded
XRPD pattern / crystal form before and after the DVS test [3]: crystal form remained unchanged
DVS weight gain (Wt. gain %) ([3]; 0.0% RH to 80% RH): 2.3%
DVS weight gain (Wt. gain %) ([3]; 0.0% RH to 90% RH): 3.1%
Hygroscopicity [3]: slightly hygroscopic
Solubility ([4]; FaSSIF, 37° C., 0.5 h): 19.34 µg/mL
Solubility ([4]; FaSSIF, 37° C., 2 h): 12.35 µg/mL
Solubility ([4]; FaSSIF, 37° C., 24 h): 13.41 µg/mL
pH of filtrate ([4]; FaSSIF, 24 h (0 h: 6.50)): 5.94
Solubility ([4]; FeSSIF, 37° C., 0.5 h): 96.23 µg/mL
Solubility ([4]; FeSSIF, 37° C., 2 h): 194.1 µg/mL
Solubility ([4]; FeSSIF, 37° C., 24 h): 255.4 µg/mL
XRPD (crystal form of filter cake) ([4]; FeSSIF, 37° C., 24 h): Remains unchanged
XRPD (crystal form of filter cake) ([4]; FeSSIF, 37° C., 24 h, listed as oxalate crystal form I): remained unchanged
pH of filtrate ([4]; FeSSIF, 24 h (0 h: 5.00)): 4.94
Solubility [4, 9]: 70 µg/mL
Solubility ([4]; SGF, 37° C., 0.5 h): 73.75 µg/mL
Solubility ([4]; SGF, 37° C., 2 h): 123.4 µg/mL
Solubility ([4]; SGF, 37° C., 24 h): 139.9 µg/mL
XRPD (crystal form of filter cake) ([4]; SGF, 37° C., 24 h): Remains unchanged
XRPD (crystal form of filter cake) ([4]; SGF, 37° C., 24 h, listed as oxalate crystal form I): remained unchanged
pH of filtrate ([4]; SGF, 24 h (0 h: 1.20)): 1.24
Compound: COc1cccc(CNC(=O)N2CCc3cc(-c4c[nH]nc4N)c(F)cc32)c1 [Oxalate crystal form I]
XRPD (crystal form of filter cake) ([4]; FaSSIF, 37° C., 24 h): partially dissociated into the free base crystal form II
